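Tested at 5 concentrations; 48 h exposure; 96-well plates; endpoints linearly interpolated, else capped at highest concentration. TGI: total growth inhibition.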
How the values were obtained:
Experiment in all cases: inhibition of tumour cell growth, NCI panel, 48 h
XF 498 CNS = test system: XF 498 CNS
TK-10 renal = test system: TK-10 renal
SK-MEL-28 melanoma = test system: SK-MEL-28 melanoma
OVCAR-3 ovarian = test system: OVCAR-3 ovarian
U251 CNS = test system: U251 CNS
NCI-H226 lung = test system: NCI-H226 lung
UO-31 renal = test system: UO-31 renal
DLD-1 colon = test system: DLD-1 colon
HT29 colon = test system: HT29 colon
HOP-18 NSCLC = test system: HOP-18 NSCLC
MCF7 breast = test system: MCF7 breast

For `N#C/C(=C/c1ccsc1)C(=O)c1ccccc1`, the TGI (XF 498 CNS) was over 100 µM, the TGI (TK-10 renal) was over 100 µM and the TGI (SK-MEL-28 melanoma) was over 100 µM. It also gave a TGI (OVCAR-3 ovarian) of over 100 µM, a TGI (U251 CNS) of over 100 µM and a TGI (NCI-H226 lung) of over 100 µM. The TGI (UO-31 renal) was over 100 µM, the TGI (DLD-1 colon) was over 100 µM and the TGI (HT29 colon) was over 100 µM. For the same compound, the TGI (HOP-18 NSCLC) was over 100 µM.

In the case of `COc1ccc2ccc3c(c2c1)CN1CCc2cc(OC)c(OC)cc2C1C3` (configuration not stated), the TGI (XF 498 CNS) is reported as over 100 µM, the TGI (TK-10 renal) is reported as over 100 µM and the TGI (SK-MEL-28 melanoma) is reported as over 100 µM. It also gave a TGI (OVCAR-3 ovarian) of over 100 µM, a TGI (U251 CNS) of over 100 µM and a TGI (NCI-H226 lung) of over 100 µM. For the same compound, the TGI (UO-31 renal) was over 100 µM, the TGI (DLD-1 colon) was over 100 µM and the TGI (HT29 colon) was over 100 µM. For the same compound, the TGI (HOP-18 NSCLC) was over 100 µM.

`N#CC1(Cc2ccc(N)cc2)c2ccccc2C=CN1C(=O)c1ccccc1` (configuration not stated) was tested, and the TGI (XF 498 CNS) was over 100 µM, the TGI (TK-10 renal) was over 100 µM and the TGI (SK-MEL-28 melanoma) was over 100 µM. For the same compound, the TGI (OVCAR-3 ovarian) was over 100 µM, the TGI (U251 CNS) was over 100 µM and the TGI (NCI-H226 lung) was over 100 µM. It also gave a TGI (UO-31 renal) of 84.2 µM, a TGI (DLD-1 colon) of over 100 µM and a TGI (HT29 colon) of over 100 µM. It also gave a TGI (HOP-18 NSCLC) of over 100 µM.

`COC(=O)C(=O)C(C(=O)C=C(C)C)C(=O)C(=O)Nc1cc(C(F)(F)F)ccc1Cl` (configuration not stated) showed a TGI (XF 498 CNS) of over 100 µM, a TGI (TK-10 renal) of over 100 µM and a TGI (SK-MEL-28 melanoma) of over 100 µM. The TGI (OVCAR-3 ovarian) was over 100 µM, the TGI (U251 CNS) was over 100 µM and the TGI (NCI-H226 lung) was over 100 µM. The TGI (UO-31 renal) was over 100 µM, the TGI (DLD-1 colon) was over 100 µM and the TGI (HT29 colon) was over 100 µM. It also gave a TGI (HOP-18 NSCLC) of over 100 µM.

`COc1ccc(CNc2cc(OC)c(OC)c(OC)c2)cc1` gave a TGI (XF 498 CNS) of over 100 µM, a TGI (TK-10 renal) of over 100 µM and a TGI (SK-MEL-28 melanoma) of over 100 µM. It also gave a TGI (OVCAR-3 ovarian) of over 48.5 µM, a TGI (U251 CNS) of 24.3 µM and a TGI (NCI-H226 lung) of over 62.1 µM. For the same compound, the TGI (UO-31 renal) was over 94.6 µM, the TGI (DLD-1 colon) was over 100 µM and the TGI (HT29 colon) was over 100 µM. For the same compound, the TGI (HOP-18 NSCLC) was over 94.6 µM.

Work on `CN(C)CCC(=O)N1C/C(=C/c2ccccc2)C(=O)/C(=C\c2ccccc2)C1` yielded a TGI (XF 498 CNS) of 6.69 µM, a TGI (MCF7 breast) of 2.19 µM and a TGI (TK-10 renal) of 17.9 µM. It also gave a TGI (SK-MEL-28 melanoma) of 5.18 µM, a TGI (OVCAR-3 ovarian) of 7.05 µM and a TGI (U251 CNS) of 2 µM. It also gave a TGI (NCI-H226 lung) of 12.6 µM, a TGI (UO-31 renal) of 5.21 µM and a TGI (DLD-1 colon) of 3.25 µM. For the same compound, the TGI (HT29 colon) was 2.69 µM and the TGI (HOP-18 NSCLC) was 10.9 µM.

In the case of `N#CC(C(=N/O)/C(=N/O)C(C#N)c1ccc(Cl)cc1)c1ccc(Cl)cc1` (configuration not stated), the TGI (XF 498 CNS) is reported as over 100 µM, the TGI (TK-10 renal) is reported as over 100 µM and the TGI (SK-MEL-28 melanoma) is reported as over 100 µM. It also gave a TGI (OVCAR-3 ovarian) of over 100 µM, a TGI (U251 CNS) of over 100 µM and a TGI (NCI-H226 lung) of over 100 µM. For the same compound, the TGI (UO-31 renal) was over 100 µM, the TGI (DLD-1 colon) was over 100 µM and the TGI (HT29 colon) was over 100 µM. It also gave a TGI (HOP-18 NSCLC) of over 100 µM.

`Cc1cc(N(CCOS(C)(=O)=O)CCOS(C)(=O)=O)ccc1C=Nc1ccc(-c2nc(Cc3ccccc3)sc2C)cc1` gave a TGI (XF 498 CNS) of 9.12 µM, a TGI (MCF7 breast) of 49.7 µM and a TGI (TK-10 renal) of 33.9 µM. For the same compound, the TGI (SK-MEL-28 melanoma) was 35.3 µM, the TGI (OVCAR-3 ovarian) was 19.6 µM and the TGI (U251 CNS) was 22.8 µM. It also gave a TGI (NCI-H226 lung) of 22.6 µM, a TGI (UO-31 renal) of 18.3 µM and a TGI (DLD-1 colon) of 31.9 µM. The TGI (HT29 colon) was 21.4 µM and the TGI (HOP-18 NSCLC) was 23.4 µM.

With `CCCCCCCCCCCC(=O)CC(=O)c1c(O)cccc1O` the TGI (XF 498 CNS) was 33.3 µM, the TGI (TK-10 renal) was 57.5 µM and the TGI (SK-MEL-28 melanoma) was 44.1 µM. For the same compound, the TGI (OVCAR-3 ovarian) was 34.4 µM, the TGI (U251 CNS) was 31.5 µM and the TGI (NCI-H226 lung) was 32.1 µM. It also gave a TGI (UO-31 renal) of 29.3 µM, a TGI (DLD-1 colon) of 32.4 µM and a TGI (HT29 colon) of 33.7 µM. It also gave a TGI (HOP-18 NSCLC) of 36.7 µM.

With `CCCCN(CCCC)C(=O)C(=O)C(C#N)c1ccc(C)cc1` (configuration not stated) the TGI (XF 498 CNS) was over 100 µM, the TGI (TK-10 renal) was over 100 µM and the TGI (SK-MEL-28 melanoma) was over 100 µM. For the same compound, the TGI (OVCAR-3 ovarian) was over 100 µM, the TGI (U251 CNS) was over 100 µM and the TGI (NCI-H226 lung) was over 100 µM. The TGI (UO-31 renal) was over 100 µM, the TGI (DLD-1 colon) was over 100 µM and the TGI (HT29 colon) was over 100 µM. For the same compound, the TGI (HOP-18 NSCLC) was over 100 µM.
